Experimental data reported in patent publication US8524702B2, “Substituted benzoazepines as toll-like receptor modulators” (VentiRx Pharmaceuticals, Inc., priority 2009, dated 2013).
Counter-ions that a name gives are not always drawn.

Assays:
TLR8 = molecular target: T1, TLR8 (Homo sapiens, UniProt Q9NR97); assay: PBMC assay for TLR8 (TNFα in supernatants by ELISA); format: cell-based; design: Peripheral blood mononuclear cells (PBMCs) from human blood were isolated; endogenous in cells; host or cells: human PBMCs; details: human PBMCs incubated with compound overnight, MC50 = concentration at which 50% of the maximum induction is seen
T1 sequence (Q9NR97 27-1041): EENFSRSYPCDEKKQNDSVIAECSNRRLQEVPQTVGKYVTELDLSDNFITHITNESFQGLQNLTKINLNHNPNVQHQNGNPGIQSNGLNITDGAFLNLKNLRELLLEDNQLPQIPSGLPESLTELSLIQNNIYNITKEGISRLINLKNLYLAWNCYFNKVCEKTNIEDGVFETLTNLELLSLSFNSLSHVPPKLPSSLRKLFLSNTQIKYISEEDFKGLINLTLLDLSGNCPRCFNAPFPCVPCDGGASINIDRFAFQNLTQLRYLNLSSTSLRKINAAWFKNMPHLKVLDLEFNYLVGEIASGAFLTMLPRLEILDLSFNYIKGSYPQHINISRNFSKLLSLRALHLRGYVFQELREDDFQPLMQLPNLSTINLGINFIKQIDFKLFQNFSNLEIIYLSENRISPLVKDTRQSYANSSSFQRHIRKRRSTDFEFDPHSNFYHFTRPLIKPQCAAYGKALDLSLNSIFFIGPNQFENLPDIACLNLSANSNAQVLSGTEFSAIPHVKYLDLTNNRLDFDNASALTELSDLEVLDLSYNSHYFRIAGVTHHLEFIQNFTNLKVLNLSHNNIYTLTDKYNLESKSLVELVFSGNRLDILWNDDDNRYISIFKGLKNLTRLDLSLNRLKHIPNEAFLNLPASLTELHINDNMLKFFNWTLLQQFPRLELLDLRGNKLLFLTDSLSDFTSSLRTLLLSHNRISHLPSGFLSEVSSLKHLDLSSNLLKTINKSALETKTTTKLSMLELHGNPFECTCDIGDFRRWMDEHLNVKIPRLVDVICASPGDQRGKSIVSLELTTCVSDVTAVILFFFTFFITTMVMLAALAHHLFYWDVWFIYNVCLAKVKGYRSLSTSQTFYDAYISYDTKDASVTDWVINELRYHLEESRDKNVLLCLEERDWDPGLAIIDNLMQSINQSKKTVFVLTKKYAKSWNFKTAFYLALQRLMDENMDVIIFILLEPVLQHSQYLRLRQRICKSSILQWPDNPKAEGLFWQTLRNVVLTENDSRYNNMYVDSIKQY
Experimental: (§1) Peripheral blood mononuclear cells (PBMCs) from human blood were isolated using BD Vacutainer Cell Preparation Tubes with sodium citrate. Cells were incubated with compound overnight. TLR8 activity was assayed by measuring the amount of TNFα in supernatants by ELISA. TLR7 activity was assayed by measuring the amount of IFNα in supernatants by ELISA (R&D Systems). […] The results of this assay are shown below in Tables 2 and 3.
(§2) MC50 numbers are represented as factors of ten, for example, + indicates an MC50 value of ×10^4, or a value in the tens of thousands of nanomolar (nM range); ++ indicates an MC50 value of ×10^3, or a value in the thousands; +++ indicates an MC50 value of ×10^2, or a value in the hundreds; and ++++ indicates an MC50 value of ×10^1 or 10°, or a value in the tens or ones.

TLR7 = molecular target: T2, TLR7 (Homo sapiens, UniProt Q9NYK1); assay: PBMC assay for TLR7 (IFNα in supernatants by ELISA); format: cell-based; design: Peripheral blood mononuclear cells (PBMCs) from human blood were isolated; endogenous in cells; host or cells: human PBMCs; details: human PBMCs incubated with compound overnight, MC50 = concentration at which 50% of the maximum induction is seen
T2 sequence (Q9NYK1 27-1049): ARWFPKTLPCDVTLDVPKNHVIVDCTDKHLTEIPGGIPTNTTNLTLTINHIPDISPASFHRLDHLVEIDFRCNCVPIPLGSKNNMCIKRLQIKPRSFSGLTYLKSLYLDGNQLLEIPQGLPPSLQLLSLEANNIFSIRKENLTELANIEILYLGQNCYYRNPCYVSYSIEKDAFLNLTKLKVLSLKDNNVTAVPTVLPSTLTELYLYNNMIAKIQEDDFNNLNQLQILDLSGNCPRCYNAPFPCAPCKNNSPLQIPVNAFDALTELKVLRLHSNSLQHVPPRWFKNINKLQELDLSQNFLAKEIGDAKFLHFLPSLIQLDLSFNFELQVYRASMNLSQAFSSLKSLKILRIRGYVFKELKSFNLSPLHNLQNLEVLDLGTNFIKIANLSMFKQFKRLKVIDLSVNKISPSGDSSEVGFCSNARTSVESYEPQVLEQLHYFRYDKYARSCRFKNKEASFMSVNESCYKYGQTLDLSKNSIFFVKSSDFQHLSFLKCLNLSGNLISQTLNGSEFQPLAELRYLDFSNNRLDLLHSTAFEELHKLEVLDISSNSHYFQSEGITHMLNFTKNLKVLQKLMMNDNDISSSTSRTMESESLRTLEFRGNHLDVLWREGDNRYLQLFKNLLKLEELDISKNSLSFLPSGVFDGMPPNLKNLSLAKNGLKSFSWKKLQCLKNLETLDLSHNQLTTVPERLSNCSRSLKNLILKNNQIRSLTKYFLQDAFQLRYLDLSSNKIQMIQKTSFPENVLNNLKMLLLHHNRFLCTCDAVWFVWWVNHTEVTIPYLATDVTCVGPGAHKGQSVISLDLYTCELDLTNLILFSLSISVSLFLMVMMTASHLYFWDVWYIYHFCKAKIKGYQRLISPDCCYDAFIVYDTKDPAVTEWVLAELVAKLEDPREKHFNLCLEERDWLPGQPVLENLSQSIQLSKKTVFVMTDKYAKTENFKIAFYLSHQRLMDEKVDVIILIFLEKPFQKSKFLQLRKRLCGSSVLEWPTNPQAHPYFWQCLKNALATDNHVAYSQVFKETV
Experimental: as §1, §2

| SMILES | EC50 (TLR8) [nM] | EC50 (TLR7) [nM] |
| --- | --- | --- |
| CCCN(CCC)C(=O)C1=Cc2ccc(-c3cccc(O)c3)cc2N=C(N)C1 [Compound 194, (1E,4E)-2-amino-8-(3-hydroxyphenyl)-N,N-dipropyl-3H-benzo[b]azepine-4-carboxamide] | 100 to 1000 | 1000 to 10000 |
| CCCN(CCCO)C(=O)C1=Cc2ccc(-c3ccc(C(=O)N4CCCC4)cc3)cc2N=C(N)C1 [Compound 109, (1E,4E)-2-amino-N-(3-hydroxypropyl)-N-propyl-8-(4-(pyrrolidine-1-carbonyl)phenyl)-3H-benzo[b]azepine-4-carboxamide] | 1 to 100 | 1000 to 10000 |
| CCCN(CCC)C(=O)C1=Cc2ccc(-c3ccccc3C(=O)OCC)cc2N=C(N)C1 [Compound 203, Ethyl 2-((1E,4E)-2-amino-4-(dipropylcarbamoyl)-3H-benzo[b]azepin-8-yl)benzoate] | 100 to 1000 | 1000 to 10000 |
| CCCN(CCC)C(=O)C1=Cc2ccc(-c3ccc(C(=O)OC)nc3)cc2N=C(N)C1 [Compound 212, Methyl 5-((1E,4E)-2-amino-4-(dipropylcarbamoyl)-3H-benzo[b]azepin-8-yl)picolinate] | 100 to 1000 | 1000 to 10000 |
| CCCN(Cc1ccccc1O)C(=O)C1=Cc2ccc(-c3ccc(C(=O)N4CCCC4)cc3)cc2N=C(N)C1 [Compound 174, (1E,4E)-2-amino-N-(2-hydroxybenzyl)-N-propyl-8-(4-(pyrrolidine-1-carbonyl)phenyl)-3H-benzo[b]azepine-4-carboxamide hydrochloride] | 100 to 1000 | 1000 to 10000 |
| CCCN(CCC)C(=O)C1=Cc2ccc(-c3ccc(C#N)cc3)cc2N=C(N)C1 [Compound 137, (1E,4E)-2-amino-8-(4-cyanophenyl)-N,N-dipropyl-3H-benzo[b]azepine-4-carboxamide] | 1 to 100 | 10000 to 100000 |
| CCCN(CCCO)C(=O)C1=Cc2ccc(-c3ccc(C(=O)OCC)c(F)c3)cc2N=C(N)C1 [Compound 211, Ethyl 4-((1E,4E)-2-amino-4-((3-hydroxypropyl)(propyl)carbamoyl)-3H-benzo[b]azepin-8-yl)-2-fluorobenzoate] | 100 to 1000 | 1000 to 10000 |
| CCCN(CCC)C(=O)C1=Cc2ccc(-c3ccc(C(=O)N(CC)CC)cc3)cc2N=C(N)C1 [Compound 125, (1E,4E)-2-amino-8-(4-(diethylcarbamoyl)phenyl)-N,N-dipropyl-3H-benzo[b]azepine-4-carboxamide] | 100 to 1000 | 1000 to 10000 |
| CCCN(CCC)C(=O)C1=Cc2ccc(-c3ccncc3)cc2N=C(N)C1 [Compound 134, (1E,4E)-2-amino-N,N-dipropyl-8-(pyridin-4-yl)-3H-benzo[b]azepine-4-carboxamide] | 100 to 1000 | 1000 to 10000 |
| CCCN(CCOC)C(=O)C1=Cc2ccc(-c3ccc(C(=O)N4CCCC4)cc3)cc2N=C(N)C1 [Compound 119, (1E,4E)-2-amino-N-(2-methoxyethyl)-N-propyl-8-(4-(pyrrolidine-1-carbonyl)phenyl)-3H-benzo[b]azepine-4-carboxamide] | 100 to 1000 | 1000 to 10000 |
| CCCN(CCC)C(=O)C1=Cc2ccc(-c3cccc(C(=O)N(C)C)c3)cc2N=C(N)C1 [Compound 138, (1E,4E)-2-amino-8-(3-(dimethylcarbamoyl)phenyl)-N,N-dipropyl-3H-benzo[b]azepine-4-carboxamide] | 1 to 100 | 1000 to 10000 |
| CCOC(=O)C1=Cc2ccc(-c3cccnc3)cc2N=C(N)C1 [Compound 142, (1E,4E)-ethyl 2-amino-8-(pyridin-3-yl)-3H-benzo[b]azepine-4-carboxylate] | 1 to 100 | 1000 to 10000 |
| CCCN(CCC)C(=O)C1=Cc2ccc(-c3ccc(C(=O)N4CC[C@H](O)C4)cc3)cc2N=C(N)C1 [Compound 128, (1E,4E)-2-amino-8-(4-((S)-3-hydroxypyrrolidine-1-carbonyl)phenyl)-N,N-dipropyl-3H-benzo[b]azepine-4-carboxamide] | 1 to 100 | 1000 to 10000 |
| NC1=Nc2cc(-c3ccc(C(=O)N4CCCC4)cc3)ccc2C=C(C(=O)N(C2CCNCC2)C2CC2)C1 [Compound 115, (1E,4E)-2-amino-N-cyclopropyl-N-(piperidin-4-yl)-8-(4-(pyrrolidine-1-carbonyl)phenyl)-3H-benzo[b]azepine-4-carboxamide] | 1000 to 10000 | – |
| CCCN(CCC)C(=O)C1=Cc2ccc(-c3cccc(C(=O)O)c3)cc2N=C(N)C1 [Compound 186, 3-((1E,4E)-2-amino-4-(dipropylcarbamoyl)-3H-benzo[b]azepin-8-yl)benzoic acid] | 10000 to 100000 | – |
| CCCN(CCNS(C)(=O)=O)C(=O)C1=Cc2ccc(-c3ccc(C(=O)N4CCCC4)cc3)cc2N=C(N)C1 [Compound 176, (1E,4E)-2-amino-N-(2-(methylsulfonamido)ethyl)-N-propyl-8-(4-(pyrrolidine-1-carbonyl)phenyl)-3H-benzo[b]azepine-4-carboxamide] | 1000 to 10000 | – |
| NC1=Nc2cc(-c3ccc(C(=O)N4CCCC4)cc3)ccc2C=C(C(=O)N2CCCC2)C1 [Compound 121, (4-((1E,4E)-2-amino-4-(pyrrolidine-1-carbonyl)-3H-benzo[b]azepin-8-yl)phenyl)(pyrrolidin-1-yl)methanone] | 10000 to 100000 | – |
| CCOC(=O)C1=Cc2ccc(-c3cccc(C#N)c3)cc2N=C(N)C1 [Compound 145, (1E,4E)-ethyl 2-amino-8-(3-cyanophenyl)-3H-benzo[b]azepine-4-carboxylate] | 1 to 100 | – |
| CCCN(CCO)C(=O)C1=Cc2ccc(-c3ccc(C(=O)N4CCCC4)cc3)cc2N=C(N)C1 [Compound 107, (1E,4E)-2-amino-N-(2-hydroxyethyl)-N-propyl-8-(4-(pyrrolidine-1-carbonyl)phenyl)-3H-benzo[b]azepine-4-carboxamide] | 1 to 100 | – |
| CCOC(=O)C1=Cc2ccc(-c3ccc(C(=O)N(CC)CC)cc3)cc2N=C(N)C1 [Compound 155, (1E,4E)-ethyl 2-amino-8-(4-(diethylcarbamoyl)phenyl)-3H-benzo[b]azepine-4-carboxylate] | 100 to 1000 | – |
| CCOC(=O)C1=Cc2ccc(-c3ccc(C(=O)N4CCCCC4)cc3)cc2N=C(N)C1 [Compound 156, (1E,4E)-ethyl 2-amino-8-(4-(piperidine-1-carbonyl)phenyl)-3H-benzo[b]azepine-4-carboxylate] | 100 to 1000 | – |
